Experimental data as given in patent US20240158348A1, “HERBICIDAL CYCLIC AMIDES N-SUBSTITUTED WITH A HALOALKYLSULFONYLANILIDE GROUP” (FMC Corporation, priority 2021, published 2024).

Experiments:
Format in all cases: in vivo
[1] = system: wheat (Triticum aestivum); experiment: Test C preemergence, wheat; details: 0 is no effect, 100 is complete control
[2] = system: foxtail, giant (giant foxtail, Setaria faberi); experiment: Test C preemergence, giant foxtail; details: 0 is no effect, 100 is complete control
In short: (§1)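 Pre: soil sprayed at seeding. Post: seedlings treated at 1–2 leaves (2–10 cm). Vehicle non-phytotoxic solvent mix with surfactant; loam–sand medium; greenhouse; visual injury read at 10 or 12 days, scale 0–100.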

[3] = system: goosegrass (Eleusine indica); experiment: Test C postemergence, goosegrass; details: for Goosegrass plant response rating: visual injury, 0 to 100 scale (0 no effect, 100 complete control); for Plant response rating (0 to 100 scale), Goosegrass: 0 is no effect, 100 is complete control
In short: as §1

[4] = system: blackgrass (Alopecurus myosuroides); experiment: Test C preemergence, blackgrass; details: 0 is no effect, 100 is complete control
In short: as §1

[5] = system: ragweed (common ragweed, Ambrosia artemisiifolia); experiment: Test C preemergence, ragweed; details: 0 is no effect, 100 is complete control
In short: (§2)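 Herbicidal effect was estimated visually on a 0–100 scale 10 or 12 days after spraying. Formulation: non-phytotoxic solvent mixture with surfactant. Timing: directed soil spray after sowing, or postemergence on seedlings bearing one or two leaves.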

corn (Zea mays) = experiment: Test C preemergence, corn; details: 0 is no effect, 100 is complete control
In short: as §2

kochia (Bassia scoparia) = experiment: Test C postemergence, kochia; details: for Kochia plant response rating: visual injury, 0 to 100 scale (0 no effect, 100 complete control); for Plant response rating (0 to 100 scale), Kochia: 0 is no effect, 100 is complete control
In short: as §1

[6] = system: barnyardgrass (Echinochloa crusgalli); experiment: Test D flooded paddy test, barnyardgrass; parameters: key: 0 = no effect, 100 = complete control; details: 250 g ai/ha, Flood; applied to paddy water at 2-leaf stage; visual rating after 13 days; scale 0 (no effect) to 100 (complete control)
In short: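 Under 3 cm of standing water, kept constant after treatment, 2-leaf plants received compound via the paddy water. Ratings on a 0–100 control scale were assigned visually after 13 greenhouse days; a dash denotes no test result.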

[7] = system: oat, wild (wild oat, Avena fatua); experiment: Test C preemergence, wild oat; details: 0 is no effect, 100 is complete control
In short: as §1

Row | SMILES | Plant response rating (0 to 100 scale), Wheat ([1]; 31 g ai/ha Preemergence) | Plant response rating (0 to 100 scale), Wheat ([1]; 125 g ai/ha Preemergence) | Plant response rating (0 to 100 scale), Foxtail, Giant ([2]; 31 g ai/ha Preemergence) | Plant response rating (0 to 100 scale), Foxtail, Giant ([2]; 125 g ai/ha Preemergence) | Goosegrass plant response rating ([3]; 31 g ai/ha Postemergence) | Plant response rating (0 to 100 scale), Goosegrass ([3]; 125 g ai/ha Postemergence) | Plant response rating (0 to 100 scale), Blackgrass ([4]; 31 g ai/ha Preemergence) | Plant response rating (0 to 100 scale), Blackgrass ([4]; 125 g ai/ha Preemergence) | Plant response rating (0 to 100 scale), Ragweed ([5]; 31 g ai/ha Preemergence) | Plant response rating (0 to 100 scale), Ragweed ([5]; 125 g ai/ha Preemergence) | Plant response rating (0 to 100 scale), Corn (corn (Zea mays); 31 g ai/ha Preemergence) | Plant response rating (0 to 100 scale), Corn (corn (Zea mays); 125 g ai/ha Preemergence) | Kochia plant response rating (kochia (Bassia scoparia); 31 g ai/ha Postemergence) | Plant response rating (0 to 100 scale), Kochia (kochia (Bassia scoparia); 125 g ai/ha Postemergence) | Plant response rating, Barnyardgrass [6] | Plant response rating (0 to 100 scale), Oat, Wild ([7]; 31 g ai/ha Preemergence) | Plant response rating (0 to 100 scale), Oat, Wild ([7]; 125 g ai/ha Preemergence) | Goosegrass plant response rating ([3]; 125 g ai/ha Postemergence) | Kochia plant response rating (kochia (Bassia scoparia); 125 g ai/ha Postemergence)
1 | Cc1cc(C)c(N2CCC(OCC3CC3)C2=O)cc1NS(=O)(=O)C(F)(F)F (stereo not shown) [Compound 22] | 90 | 100 | 100 | 100 | 70 | 90 | 50 | 90 | 50 | 100 | 90 | 90 | 60 | 70 | 90 | 90 | 100 | – | –
2 | Cc1cc(C)c(N2CCC(OCC3CCCC3)C2=O)cc1NS(=O)(=O)C(F)(F)F (stereo not shown) [Compound 57] | 20 | 80 | 80 | 100 | 70 | – | 40 | 80 | 0 | 80 | 0 | 50 | 50 | – | 15 | 20 | 80 | 90 | 70
3 | CCOC(=O)N(c1cc(N2CCC(OC3CC3)C2=O)c(C)cc1C)S(=O)(=O)C(F)(F)F (stereo not shown) [Compound 19] | 0 | 10 | 0 | 10 | 0 | 90 | 0 | 40 | 0 | 10 | 0 | 0 | 30 | 70 | 0 | 0 | 40 | – | –
4 | Cc1cc(C)c(N2CCC(OC3CC3)C2=O)cc1NS(=O)(=O)C(F)(F)F (single isomer, unassigned) [Compound 30] | 90 | 100 | 100 | 100 | 80 | 90 | 80 | 100 | 100 | 100 | 90 | 90 | 80 | 90 | 95 | 80 | 100 | – | –
5 | Cc1cc(C)c(N(C(=O)OCC(C)C)S(=O)(=O)C(F)(F)F)cc1N1CCC(OC2CC2)C1=O (stereo not shown) [Compound 21] | 10 | 90 | 100 | 100 | 90 | 90 | 10 | 80 | 40 | 80 | 20 | 90 | 70 | 80 | 95 | 30 | 90 | – | –
